Source: publication PMC6749389, “Synthesis and In Vitro Anti-Toxoplasma gondii Activity of Novel Thiazolidin-4-one Derivatives” (Molecules, 2019)

Key:
[1] = Solubility under the protocol conditions; assay type: physicochemical; conditions: compounds dissolved in DMSO and diluted in medium
Protocol: Among the 43 compounds tested derivatives 81, 96, 97, 100–104 were insoluble under the protocol conditions and, consequently, they were eliminated from further experiments.
Compounds were dissolved in dimethyl sulfoxide (DMSO, Sigma-Aldrich, St. Louis, MO, USA) to 125 mM. The final concentration of DMSO in the compounds dilutions was not higher than 1.00%. Drug, sulfadiazine [4-amino-N-(2-pyrimidinyl)benzenesulfonamide] (S8626, Sigma-Aldrich) was dissolved in 1M sodium hydroxide (NaOH, Sigma-Aldrich) to 400 mM. Final concertation of NaOH in sulfadiazine dilutions was not higher than 2.5%. Ready solution sulfadiazine and trimethoprim in weight ratio 5:1 (Sul-Tridin 24%, 200 mg/mL [800 mM] + 40 mg/mL [137.78 mM]– ScanVet Poland). Dilution of the all compounds and drugs were freshly prepared before the cells were exposed in appropriate medium.

melting point [°C]	solubility under the protocol conditions [1]	SMILES
216 to 218	insoluble	CCOc1cc(C=NN=C2SC(=CC(=O)OC)C(=O)N2c2ccccc2Cl)ccc1O [Compound 96, Methyl [3-(2-chlorophenyl)-2-{[(3-ethoxy-4-hydroxyphenyl)methylidene]hydrazinylidene}-4-oxo-1,3-thiazolidin-5-ylidene]acetate]
234 to 236	insoluble	O=C(O)CC1SC(=NN=Cc2ccccc2O)N(c2ccc(Cl)cc2)C1=O (stereo not drawn) [Compound 81, [3-(4-Chlorophenyl)-2-{[(2-hydroxyphenyl)methylidene]hydrazinylidene}-4-oxo-1,3-thiazolidin-5-yl]acetic acid]
214 to 216	insoluble	COC(=O)C=C1SC(=NN=Cc2ccccc2O)N(c2ccc(Cl)cc2)C1=O [Compound 97, Methyl [3-(4-chlorophenyl)-2-{[(2-hydroxyphenyl)methylidene]hydrazinylidene}-4-oxo-1,3-thiazolidin-5-ylidene]acetate]
